This passage reports RP-LC retention time results from the METLIN SMRT retention time set (Domingo-Almenara et al. 2019).

This data set can be described thus: gradient 5% acetonitrile 3 min, to 50% in 2 min, to 85% in 15 min, held 3 min, 100 µL/min. As to conditions: column: Zorbax Extend-C18 2.1 x 50 mm; eluents: water / acetonitrile, 0.1% formic acid. The essentials: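 A Zorbax Extend-C18 column (2.1 × 50 mm, 1.8 μm) run at 100 μL/min with water and acetonitrile, both containing 0.1% formic acid, separated mixtures of ~100 pure standards. The HPLC was coupled to a quadrupole time-of-flight mass spectrometer operated in positive and negative ionization mode, with dead and dwell volumes of 40 μL and 900 μL. Each retention time was taken from a computationally picked adduct peak that was then manually inspected.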
For the compound `COC(=O)c1ccc(C2CC(=O)NC3=C2C(=O)CC(c2ccc(F)cc2)C3)cc1` (stereo not given), the RP-LC retention time worked out at 820 s. In the case of `COc1ccccc1-c1nc(-c2ccc3c(c2)nnn3CCN2CCCCC2)no1` it was 663 s; in that of `Cc1ccc(NC(=O)Cn2c(=O)n(-c3ccccc3)c3ncccc32)cc1`, 840 s. As for `CCCCCNC(=O)c1cnn2c(-c3ccc4c(c3)OCO4)ccnc12`, the RP-LC retention time was 1010 s.

`COc1ccc(Cc2nc3nccc(-c4ccco4)n3n2)cc1`: the RP-LC retention time is 855 s.

`CCOCC(=O)N1CC(c2nc(CCOC)no2)C1` displayed an RP-LC retention time of 600 s. Then `O=S(=O)(Cc1ccccc1)N1CCC(Cc2nncn2-c2ccccc2)C1` (stereo not given), with 729 s.

For `CC1CCN(C(=O)c2cn(-c3cc(N4CCC(C)CC4)ncn3)cn2)CC1`, the RP-LC retention time was 1030 s.

As to `COc1ccc(NC(=O)Cn2cnc3c(sc4nc(-c5ccccc5)ccc43)c2=O)cc1Cl`, the RP-LC retention time worked out at 1030 s. In the case of `Cc1cc(N2CCN(c3ccccc3)CC2)n2nc(-c3cccnc3)nc2n1` it was 863 s; in that of `Cn1c(CCNC(=O)c2cn3ccccc3n2)nc2ccccc21`, 556 s; in that of `COc1cccc(CNC(=O)CCNc2cnc3cnccn23)c1`, 585 s. In the case of `Cc1ccc(-c2cc3c(N4CCCC(C(=O)NCCC5=CCCCC5)C4)nccn3n2)c(C)c1` (stereo not given) it was 1150 s.

In turn, `CCc1nc(-c2cc(S(=O)(=O)NCC(=O)NC3CCCC3)c(C)s2)no1` had an RP-LC retention time of 843 s. In the case of `CCNC(=O)N1CC(Oc2cccc(-c3nc(C)no3)c2)C1` it was 705 s; in that of `O=C(NC1CC(=O)N(Cc2ccccc2)C1)c1cnccn1` (stereo not given), 632 s. As to `COc1ccc(N2CCN(C3=NS(=O)(=O)c4ccccc43)CC2)cc1`, the RP-LC retention time was 780 s. With `O=C(c1ccc(-c2ccsc2)nc1)N1CCN(c2ccccc2)CC1`, the RP-LC retention time came out at 909 s. `Cc1noc(C)c1-c1ccc(S(=O)(=O)Nc2cccc(C#N)c2)cc1`: the RP-LC retention time came out at 874 s. Compound `COc1nc2ccccc2nc1N1CCCC(C(=O)N2CCN(c3ccccc3)CC2)C1` (stereo not given) returned an RP-LC retention time of 1220 s. `COc1ccc2[nH]cc(CCN3CC(C(=O)Nc4nnc(C(F)(F)F)s4)CC3=O)c2c1` (stereo not given) yielded an RP-LC retention time of 780 s. In the case of `CCn1ccc2c(cc(C(=O)Nc3ccccc3C(F)(F)F)n2C)c1=O` it was 742 s. Then `Cn1cc(CN2CCCC(COc3ccccc3C(=O)N3CCOCC3)C2)c2ccccc21` (stereo not given), with 664 s. For `CC(C)c1ccc(NC(=O)CN2C(=O)C3CCCCN3c3ccc(S(=O)(=O)N(C)C)cc32)cc1` (stereo not given), the RP-LC retention time was 955 s. In the case of `Cc1[nH]c(=O)[nH]c(=O)c1S(=O)(=O)NC1CCCC1` it was 620 s; in that of `CCOC(=O)c1cccc(Nc2ncccc2S(=O)(=O)NC)c1`, 622 s. `O=C(NCc1ccccc1Cl)c1coc(NC(=O)c2cccs2)n1` gave an RP-LC retention time of 719 s.

In the case of `CNC(=O)Nc1ccc(C2(C(=O)Nc3cc(C)cc(C)c3)CCC2)cc1`, the RP-LC retention time came out at 822 s. The compound `CCn1ccc2sc(C)c(C(=O)NCc3ccc(OC)cc3)c2c1=O` gave an RP-LC retention time of 786 s.

`CCOc1nc2ccccc2nc1N1CCCC(C(=O)N2CCN(c3ccc(OC)cc3)CC2)C1` (stereo not given) displayed an RP-LC retention time of 1190 s. `c1coc(-c2nnc(-c3cc4ccccc4o3)o2)c1` came in with an RP-LC retention time of 925 s.

Turning to `CC(=O)c1cccc(NC(=O)c2c(F)cccc2F)c1`, the RP-LC retention time was 708 s. In the case of `O=C(Cn1nc2c(Oc3ccccc3)nccn2c1=O)NCCCc1ccccc1` it was 871 s; in that of `Cc1ccc2nc(C(=O)NCc3ccc(N(C)C)cc3)cn2c1`, 565 s. The compound `COc1ccc(C(C)NC(=O)C2CCN(c3cnc4nccnc4c3)CC2)cc1` (stereo not given) came in with an RP-LC retention time of 695 s.

In the case of `Cc1noc(CNS(=O)(=O)c2ccc(OC(F)(F)F)cc2)n1`, the RP-LC retention time was determined as 818 s.

The compound `CCC(C)n1c(=O)c2ccccc2n(Cc2nc(-c3ccc(Br)cc3)no2)c1=O` (stereo not given) had an RP-LC retention time of 1320 s.

In turn, `COc1cccc(Cn2c(=O)c3sccc3n(Cc3nc(-c4ccccc4OC)no3)c2=O)c1` registered an RP-LC retention time of 987 s. `COc1ccc(Cl)cc1S(=O)(=O)N1CCC(C(N)=O)CC1` showed an RP-LC retention time of 660 s. As to `COc1ccc(OC)c(CNS(=O)(=O)c2cc(-c3cnn4c(C)cc(C)nc34)ccc2OC)c1`, the RP-LC retention time was 935 s.

Compound `CCOc1ccccc1NC(=O)C1CCCN(S(=O)(=O)c2cc(-c3noc(C)n3)cs2)C1` (stereo not given) came in with an RP-LC retention time of 1060 s. Then `CC(=O)N1c2ccc(S(=O)(=O)N3CCCC3)cc2CC1C(=O)NCCN1CCCCCC1` (stereo not given), with 630 s; and `CCc1nnc(-c2ccc(=O)n(CC(=O)Nc3ccc(C)cc3F)c2)o1`, with 692 s; and `COC(=O)c1ccc(NC(=O)CN2CCc3[nH]c4c(C)ccc(F)c4c(=O)c3C2)cc1`, with 604 s. Then `COC(=O)c1ccc(NC(=O)N2CCCC2c2cc(C(C)C)on2)cc1` (stereo not given), with 890 s. In turn, `Cc1nc2c3ccccc3nc(NNC(=O)CCC(=O)N3CCN(c4ccccn4)CC3)n2n1` came in with an RP-LC retention time of 550 s. For `CCNC(=O)C1CCN(S(=O)(=O)c2cc(-c3noc(CC)n3)cs2)CC1`, the RP-LC retention time came to 767 s. As for `COc1ccc(-c2nnc3ccc(SCC(=O)Nc4nc(C)cs4)nn23)cc1OC`, the RP-LC retention time came out at 606 s. Then `COCC1(F)CCN(Cc2c(-c3cc(C)ccc3C)nc3cc(C)ccn23)CC1`, with 636 s; and `Cc1nc(CC(=O)Nc2nc(-c3ccc(F)cc3)cs2)cs1`, with 863 s. For the compound `Cc1ccsc1C(=O)NC1(c2nc(-c3cccnc3)no2)CCCCC1`, the RP-LC retention time is 937 s.

The compound `Cc1ccc(NC(=O)N2CCC(C)(C(=O)NCc3ccc(F)cc3)CC2)cc1Cl` had an RP-LC retention time of 664 s. Then `Cc1cccc(Oc2nccnc2N2CCC(C(=O)NC(C)c3ccc(C)c(C)c3)CC2)c1` (stereo not given), with 1130 s; and `Cc1cccc(N2CCN(c3ccc4cc(S(=O)(=O)N5CCCCC5)ccc4n3)CC2C)c1` (stereo not given), with 1110 s. Regarding `Cc1ccc(-c2nnc(SCc3noc(CCC(=O)Nc4cc(C)on4)n3)o2)cc1`, the RP-LC retention time was found to be 846 s.

For `Cc1ccc2[nH]cc(CCN3CC(C(=O)Nc4ccccc4)CC3=O)c2c1` (stereo not given), the RP-LC retention time stood at 801 s. As to `CCc1cc(C2CCCN2C(=O)Nc2ccc(OC)c(OC)c2)on1` (stereo not given), the RP-LC retention time was determined as 724 s. Regarding `O=C(NCC(O)c1ccsc1)Nc1cccc(Cl)c1` (stereo not given), the RP-LC retention time was 734 s. Then `O=C(NCCn1c(=O)n(Cc2ccc(F)cc2)c2cccnc21)c1ccco1`, with 719 s. Then `Cc1oc(-c2cccc(Cl)c2)nc1Cn1c(=O)n(C(C)C)c(=O)c2ccccc21`, with 1360 s; and `Cn1nccc1C(=O)N1CCCCC1c1nncn1Cc1ccccc1` (stereo not given), with 665 s; and `CCC(=O)N1c2ccc(S(=O)(=O)N3CCCCC3)cc2CC1C(=O)NCc1ccc(N(C)C)cc1` (stereo not given), with 691 s. In the case of `Cc1ccc2c(c1)N(Cc1cccc(F)c1)N=C(C(=O)N1CCCC1)S2(=O)=O`, the RP-LC retention time amounted to 876 s. Then `COC(=O)c1ccc2c(=O)n(-c3ccc(C)c(F)c3)c(N3CCOCC3)nc2c1`, with 975 s; and `Cc1ccccc1CNC(=O)C1(C)CCCN(C(=O)Nc2ccc(Br)cc2)C1` (stereo not given), with 1020 s; and `CC1CCN(C(=O)c2cc(S(=O)(=O)N3CCC(C(=O)NC4CCCCC4)CC3)cn2C)CC1`, with 839 s.

`CC(C)NC(=O)Cn1ccn2nc(-c3ccccc3)c(CO)c2c1=O` registered an RP-LC retention time of 666 s. Consider `O=C(N[C@@H]1CN(c2ncccn2)C[C@H]1CO)c1nccc2ccccc12`, for which the RP-LC retention time worked out at 613 s. Then `O=S(=O)(c1ccc2c(c1)CCC2)N1CCC(CN2CCCCCC2)CC1`, with 708 s; and `Cn1nc(-c2nnc(-c3ccccc3Cl)o2)c2c1CCN(C(=O)c1ccc(F)c(F)c1)C2`, with 877 s. In the case of `COc1ccc(NC(=O)c2cc(C)n3nc(-c4ccco4)cc3n2)cc1F` it was 1060 s; in that of `Cc1cc(C)c(C(=O)N2CCC(CC(=O)NCc3ccc(Cl)cc3)CC2)[nH]1`, 800 s. With `Cc1ccc(CNC(=O)N2CCC(N3CCN(Cc4cccc(F)c4)C(=O)C3=O)CC2)cc1`, the RP-LC retention time came out at 757 s. In turn, `Cc1cccc(C(=O)NCc2ccc3c(c2)nnn3C)c1` displayed an RP-LC retention time of 700 s. As to `CCOc1nc2ccccc2nc1N1CCCC(C(=O)Nc2cccc(Cl)c2)C1` (stereo not given), the RP-LC retention time amounted to 1290 s. `CCSc1nc2ccc(NS(=O)(=O)c3ccc4c(c3)OCCO4)cc2s1` showed an RP-LC retention time of 987 s. Then `C=CCN1C(=O)COc2ccc(-c3nc(NC(C)=O)sc3C)cc21`, with 787 s; and `Cc1noc(CNC(=O)c2cc(C)on2)n1`, with 592 s; and `Cc1[nH]c(C(=O)Nc2cccc(Br)c2)c(C)c1S(=O)(=O)N1CCCC1`, with 971 s.

Compound `N#Cc1ccc(CN2CCC3(CCC3O)CC2)cc1` (stereo not given) had an RP-LC retention time of 570 s.
